According to patent publication US20060040871A1, “Bacterial transforming agent” (priority 2003, published 2006):
Blank lines part the entries; values can stand above or below the compound they belong to.

Columns and labels:
MRSA [1] = assay: MIC of methicillin for MRSA isolates grown with glycine or GBE (Table 1); assay type: cell-based, Staphylococcus aureus; details: 0.0 (Control); for MIC: Staphylococcus aureus
S. aureus = assay: MIC of methicillin for already sensitive S. aureus with GBE, with or without 1% human plasma (Table 6); assay type: cell-based, Staphylococcus aureus; details: Staphylococcus aureus, no plasma (Control 1)
Source text: As previously mentioned, a common cause of auto-infection is due to S. aureus carried on the anterior nares. […] The transforming agents of the present invention may also be used in combination with a suitable antimicrobial to eliminate nasal carriage of MSSA prior to cardiac surgery or other invasive procedures carrying a high risk of auto-infection.

MRSA [2] = assay: Antimicrobial plus BTA against recent clinical MRSA isolates (Table 7); assay type: cell-based, Staphylococcus aureus
Source text: The four clinical isolates were isolated from patients during the first three months of 2003. […] An intermediate MRSA has been included, as methicillin-resistance has been achieved by means other than production of PBP2a.

VRE = assay: Antimicrobial plus BTA against VRE (Table 7); assay type: cell-based, enterococci; details: +BTA 0.1%
MRSA [3] = assay: MIC of ceftazidime or cefuroxime for MRSA grown with or without GBE (Table 2); assay type: cell-based, Staphylococcus aureus; details: Control; for MIC: Staphylococcus aureus, read-out: MIC of ceftazidime
Source text: Importantly, the usefulness of the agents of the present invention is not limited to increasing bacterial sensitivity to methicillin.

MIC of methicillin (MRSA [1]; CD40 (EMRSA-1)): >256 µg/mL | MIC of methicillin (MRSA [1]; DS09 (EMRSA-1)): >256 µg/mL | MIC of methicillin (MRSA [1]; E15-97 (EMRSA-15)): >256 µg/mL | MIC of methicillin (MRSA [1]; E16-96 (EMRSA-16)): >256 µg/mL | MIC of methicillin (MRSA [1]; JF1-32 (EMRSA-1)): >256 µg/mL | MIC of methicillin (MRSA [1]; L265): >256 µg/mL | MIC of methicillin (MRSA [1]; L267): >256 µg/mL | MIC of methicillin (MRSA [1]; L268): >256 µg/mL | MIC of methicillin (MRSA [1]; L269): >256 µg/mL | MIC of methicillin (MRSA [1]; L270): >256 µg/mL | MIC of methicillin (MRSA [1]; L271): >256 µg/mL | MIC of methicillin (MRSA [1]; L272): >256 µg/mL | MIC of methicillin (MRSA [1]; L273): >256 µg/mL | MIC of methicillin (MRSA [1]; L274): >256 µg/mL | MIC of methicillin (MRSA [1]; L275): >256 µg/mL | MIC of methicillin (MRSA [1]; L276): >256 µg/mL | MIC of methicillin (MRSA [1]; L277): >256 µg/mL | MIC of methicillin (MRSA [1]; L278): >256 µg/mL | MIC of methicillin (MRSA [1]; L279): >256 µg/mL | MIC of methicillin (MRSA [1]; L280): >256 µg/mL | MIC of methicillin (MRSA [1]; L281): >256 µg/mL | MIC of methicillin (MRSA [1]; L282): >256 µg/mL | MIC of methicillin (MRSA [1]; L283): >256 µg/mL | MIC of methicillin (MRSA [1]; L284): >256 µg/mL | MIC of methicillin (MRSA [1]; L285): >256 µg/mL | MIC of methicillin (MRSA [1]; L286): >256 µg/mL | MIC of methicillin (MRSA [1]; L287): >256 µg/mL | MIC of methicillin (MRSA [1]; L288): >256 µg/mL | MIC of methicillin (MRSA [1]; L289): >256 µg/mL | MIC of methicillin (MRSA [1]; L290): >256 µg/mL | MIC of methicillin (MRSA [1]; L291): >256 µg/mL | MIC of methicillin (MRSA [1]; L292): >256 µg/mL | MIC of methicillin (MRSA [1]; L293): >256 µg/mL | MIC of methicillin (MRSA [1]; L294): >256 µg/mL | MIC of methicillin (MRSA [1]; MC01 (EMRSA-1)): >256 µg/mL | MIC of methicillin (MRSA [1]; PS3-32 (EMRSA-1)): >256 µg/mL | MIC of methicillin (MRSA [1]; SN31 (EMRSA-1)): >256 µg/mL | MIC of methicillin (MRSA [1]; ST11 (EMRSA-1)): >256 µg/mL | MIC of methicillin (MRSA [1]; SW2-32 (EMRSA-1)): >256 µg/mL | MIC (MRSA [1]; MRSA / NCTC 12493, NCTC 12493): > 256 µg/mL | MIC (MRSA [1]; MRSA, L266): > 256 µg/mL | MIC (S. aureus; 5518 (EMRSA-1)): > 256 µg/mL | MIC (S. aureus; LHS77): < 0.25 µg/mL | MIC (S. aureus; LHS78): 0.25 µg/mL | MIC (S. aureus; LHS79): 0.5 µg/mL | MIC (S. aureus; LHS80): 0.25 µg/mL | MIC (S. aureus; LHS81): < 0.25 µg/mL | MIC (S. aureus; LHS82): 0.5 µg/mL | MIC (S. aureus; LHS83): 0.25 µg/mL | MIC (S. aureus; LHS84): 0.25 µg/mL | MIC (S. aureus; LHS85): 0.25 µg/mL | MIC (S. aureus; LHS86): 0.25 µg/mL | MIC (S. aureus; LHS87): 0.5 µg/mL | MIC (S. aureus; LHS88): 0.25 µg/mL | MIC (S. aureus; LHS89): 0.25 µg/mL | MIC (S. aureus; LHS90): < 0.25 µg/mL | MIC (S. aureus; LHS91): < 0.25 µg/mL | MIC (S. aureus; LHS92): 0.5 µg/mL | MIC (S. aureus; LHS93): 0.25 µg/mL | MIC (S. aureus; LHS94): 0.25 µg/mL
SMILES: COc1cccc(OC)c1C(=O)N[C@@H]1C(=O)N2[C@@H]1SC(C)(C)[C@@H]2C(=O)O [methicillin]

Oxacillin (antimicrobial plus BTA; quantity not named, MIC implied) (MRSA [2]; EMRSA-16, +BTA 0.01%): 6 µg/mL | Cephalexin (antimicrobial plus BTA; quantity not named, MIC implied) (MRSA [2]; EMRSA-16, +BTA 0.1%): 6 µg/mL | Oxacillin (antimicrobial plus BTA; quantity not named, MIC implied) (MRSA [2]; EMRSA-16, +BTA 0.1%): 4 µg/mL | Vancomycin (antimicrobial plus BTA; quantity not named, MIC implied) (MRSA [2]; EMRSA-16, +BTA 0.1%): 0.25 µg/mL | Oxacillin (antimicrobial plus BTA; quantity not named, MIC implied) (MRSA [2]; EMRSA-17, +BTA 0.01%): 8 µg/mL | Cephalexin (antimicrobial plus BTA; quantity not named, MIC implied) (MRSA [2]; EMRSA-17, +BTA 0.1%): 8 µg/mL | Oxacillin (antimicrobial plus BTA; quantity not named, MIC implied) (MRSA [2]; EMRSA-17, +BTA 0.1%): 4 µg/mL | Vancomycin (antimicrobial plus BTA; quantity not named, MIC implied) (MRSA [2]; EMRSA-17, +BTA 0.1%): 0.25 µg/mL | Oxacillin (antimicrobial plus BTA; quantity not named, MIC implied) (MRSA [2]; I-MRSA, +BTA 0.01%): 4 µg/mL | Cephalexin (antimicrobial plus BTA; quantity not named, MIC implied) (MRSA [2]; I-MRSA, +BTA 0.1%): 2 µg/mL | Oxacillin (antimicrobial plus BTA; quantity not named, MIC implied) (MRSA [2]; I-MRSA, +BTA 0.1%): 2 µg/mL | Vancomycin (antimicrobial plus BTA; quantity not named, MIC implied) (MRSA [2]; I-MRSA, +BTA 0.1%): < 0.25 µg/mL | Vancomycin (antimicrobial plus BTA; quantity not named, MIC implied) (VRE): 64 µg/mL
SMILES: O=C(O)CNC(=O)c1ccccc1 [HA, Hippuric acid (N-Benzoylglycine)]

MIC of ceftazidime (MRSA [3]; CD40 (EMRSA-1)): >256 µg/mL | MIC of ceftazidime (MRSA [3]; E15-97 (EMRSA-15)): >256 µg/mL | MIC of ceftazidime (MRSA [3]; E16-96 (EMRSA-16)): >256 µg/mL | MIC of ceftazidime (MRSA [3]; JF1-32 (EMRSA-1)): >256 µg/mL | MIC of ceftazidime (MRSA [3]; MC01 (EMRSA-1)): >256 µg/mL | MIC of ceftazidime (MRSA [3]; PS3-32 (EMRSA-1)): >256 µg/mL | MIC of ceftazidime (MRSA [3]; SN31 (EMRSA-1)): >256 µg/mL | MIC of ceftazidime (MRSA [3]; ST11 (EMRSA-1)): >256 µg/mL | MIC of ceftazidime (MRSA [3]; SW2-32 (EMRSA-1)): >256 µg/mL | MIC (MRSA [3]; MRSA / NCTC 12493, NCTC 12493): > 256 µg/mL | MIC (MRSA [3]; MRSA, DS09 (EMRSA-1)): > 256 µg/mL
SMILES: CC(C)(O/N=C(\C(=O)N[C@@H]1C(=O)N2C(C(=O)[O-])=C(C[n+]3ccccc3)CS[C@H]12)c1csc(N)n1)C(=O)O [Ceftazidime, ceftazidime]

Cephalexin (antimicrobial plus BTA; quantity not named, MIC implied) (MRSA [2]; I-MRSA, cephalexin alone): 32 µg/mL
SMILES: CC1=C(C(=O)O)N2C(=O)[C@@H](NC(=O)[C@H](N)c3ccccc3)[C@H]2SC1 [Cephalexin, cephalexin]
